# Reference: paper PMC9833666, “Designing and identifying β-hairpin peptide macrocycles with antibiotic potential” (Science Advances, 2023)
# Bridge positions count the residues as written; N and C are the ends. Peptide text beside a SMILES is read from it.
# Test system: Escherichia coli W3110
# Assay type: cell-based
# Conditions: for Ec W3110 MIC MH: E. coli W3110, MH medium; for Ec W3110 MIC RPMI: E. coli W3110, RPMI medium
Ec W3110 MIC MH,Ec W3110 MIC RPMI,W3110 MIC MH (W3110),W3110 MIC RPMI (W3110),W3110 MIC (W3110),Compound
32 µg/mL,32 µg/mL,32 µg/mL,32 µg/mL,–,CC[C@H](C)[C@@H]1NC(=O)[C@H](CCCNC(=N)N)NC(=O)[C@H](C(C)C)NC(=O)[C@@H](N)CSSC[C@@H](C(=O)O)NC(=O)[C@H](C(C)C)NC(=O)[C@H](CCC(N)=O)NC(=O)[C@H](CC(C)C)NC(=O)[C@H]([C@@H](C)O)NC(=O)[C@H](C(C)C)NC(=O)[C@H](CCCCN)NC(=O)[C@H](C(C)C)NC(=O)[C@H](CCCNC(=N)N)NC(=O)[C@H](CCCNC(=N)N)NC(=O)CNC(=O)CNC(=O)[C@H](CC(N)=O)NC(=O)[C@H](CC(N)=O)NC(=O)[C@H](CC(C)C)NC(=O)[C@H](CCCNC(=N)N)NC1=O [SySA-53] (H-CVRIRLNNGGRRVKVTLQVC-OH; disulfide 1-20; N-terminus and C-terminus assumed)
32 µg/mL,8 µg/mL,32 µg/mL,8 µg/mL,–,CC[C@H](C)[C@@H]1NC(=O)[C@H](CCCNC(=N)N)NC(=O)[C@H](CC(C)C)NC(=O)CNC(=O)[C@H](CCCNC(=N)N)NC(=O)[C@H](CCCNC(=N)N)NC(=O)[C@H](CCCNC(=N)N)NC(=O)[C@H](CC(N)=O)NC(=O)[C@H](CC(N)=O)NC(=O)[C@H](CC(C)C)NC(=O)[C@H](CCCNC(=N)N)NC(=O)[C@H](C(C)C)NC(=O)[C@H](CCCNC(=N)N)NC(=O)[C@H](CC(C)C)NC(=O)[C@@H](N)CSSC[C@@H](C(=O)O)NC(=O)[C@H](C(C)C)NC(=O)[C@H](CCC(N)=O)NC(=O)[C@H](CC(C)C)NC(=O)[C@H](CO)NC1=O [SySA-73] (H-CLRVRLNNRRRGLRISLQVC-OH; disulfide 1-20; N-terminus and C-terminus assumed)
256 µg/mL,128 µg/mL,–,128 µg/mL,–,CC[C@H](C)[C@@H]1NC(=O)[C@H](CCCNC(=N)N)NC(=O)[C@@H](N)CSSC[C@@H](C(=O)O)NC(=O)[C@H](CCC(N)=O)NC(=O)[C@H](C(C)C)NC(=O)[C@H](CCC(=O)O)NC(=O)[C@H](CC(C)C)NC(=O)[C@H](CCCNC(=N)N)NC(=O)[C@H](CC(C)C)NC(=O)[C@H](CCCNC(=N)N)NC(=O)[C@H](CCCNC(=N)N)NC(=O)CNC(=O)[C@H](CCCNC(=N)N)NC(=O)[C@H](CC(N)=O)NC(=O)[C@H](CC(N)=O)NC(=O)[C@H](C(C)C)NC(=O)[C@H](CC(N)=O)NC(=O)[C@H](C(C)C)NC(=O)[C@H](CCCCN)NC1=O [SySA-4] (H-CRIKVNVNNRGRRLRLEVQC-OH; disulfide 1-20; N-terminus and C-terminus assumed)
–,–,–,–,> 256 µg/mL,CC(C)C[C@@H]1NC(=O)[C@H](CCCNC(=N)N)NC(=O)[C@H](C(C)C)NC(=O)[C@H](CCCNC(=N)N)NC(=O)[C@H](CC(C)C)NC(=O)[C@@H](N)CSSC[C@@H](C(=O)O)NC(=O)[C@H](C(C)C)NC(=O)[C@H](CCC(N)=O)NC(=O)[C@H](C(C)C)NC(=O)[C@H](CO)NC(=O)[C@H](C(C)C)NC(=O)[C@H](CCCCN)NC(=O)[C@H](C(C)C)NC(=O)[C@H](CCCNC(=N)N)NC(=O)[C@H](CCCNC(=N)N)NC(=O)CNC(=O)CNC(=O)[C@H](CC(N)=O)NC(=O)[C@H](CC(N)=O)NC1=O [SyRA-3] (H-CLRVRLNNGGRRVKVSVQVC-OH; disulfide 1-20)
64 µg/mL,32 µg/mL,64 µg/mL,32 µg/mL,–,CC(C)C[C@@H]1NC(=O)CNC(=O)[C@H](CCCNC(=N)N)NC(=O)[C@H](CCCNC(=N)N)NC(=O)[C@H](CCCNC(=N)N)NC(=O)[C@H](CC(N)=O)NC(=O)[C@H](CC(N)=O)NC(=O)[C@H](CC(C)C)NC(=O)[C@H](CCCNC(=N)N)NC(=O)[C@H](C(C)C)NC(=O)[C@H](CCCNC(=N)N)NC(=O)[C@H](CC(C)C)NC(=O)[C@@H](N)CSSC[C@@H](C(=O)O)NC(=O)[C@H](C(C)C)NC(=O)[C@H](CCC(N)=O)NC(=O)[C@H](C(C)C)NC(=O)[C@H](CO)NC(=O)[C@H](C(C)C)NC(=O)[C@H](CCCCN)NC1=O [SySA-17] (H-CLRVRLNNRRRGLKVSVQVC-OH; disulfide 1-20; N-terminus and C-terminus assumed)
